Assay results as given in patent US10519177B2, “Heterocyclic compounds and uses thereof” (Plexxikon Inc., priority 2013, dated 2019).

Biological target: BRD4-BD1 (44-164) (Homo sapiens (Human), UniProt O60885)
Test: Alphascreen binding assay BRD4-BD1
Conditions: BRD4(1) H4; read-out: Biochemical activity (IC50 μM) BRD4(1) H4
Procedure: Binding of compounds of formula (I) with bromodomain 2, 3 4 was assessed using Alphascreen binding assay. The inhibition of the interaction between bromodomain and its acetylated target protein (Filippakopoulos P et al. 2012) was measured quantitatively using recombinant BRD proteins, an acetylated Histone 4 peptide and AlphaScreen™ technology. In absence of inhibition the BRD protein bound to AlphaScreen™ nickel chelate acceptor beads can interact with the acetylated Histone 4 peptide which is immobilized by the AlphaScreen™ Streptavidin coated beads. This interaction brings donor and acceptor beads in proximity. The close proximity allows the singlet oxygen produced by laser excitation of the donor beads to reach the acceptor beads and generate a luminescence signal.
Recombinant human bromodomains containing the N-terminal bromodomain (BRD2-BD1 (71-194), BRD3-BD1 (24-144) and BRD4-BD1 (44-164)) or dual bromodomains (BRD4-BD12 (1-477), BRD4-BD12 (1-472)) were prepared and purified as described in protein expression and purification session. The peptide is human Histone H41-21K5AcK8AcK12AcK16Ac-Biotin (Anaspec CA, USA).
Protocol for BRD2, BRD3 and BRD4 assay: All components are prepared in buffer composed of 50 mM HEPES pH 7.5, 100 mM NaCl, 0.01% bovine serum albumin (“BSA”), 0.01% Triton X-100, 2 mM dithiothreitol (“DTT”). 7 μL of Bromodomain protein and 7 μL of peptide are added to wells containing 1 μL of various concentrations of test compounds of formula (I) or DMSO vehicle in an Alphaplate (PerkinElmer GA, USA) and incubated for 1 hour at room temperature. 4 μL donor and acceptor bead mixture is then added with final concentrations of 7.5 μg/ml. 30 minutes after bead addition, Alpha signal is read on the Envision spectrometer (λEx 680 nm, λEm 520-620 nm). Final concentrations of bromodomain proteins and peptide are as shown below.
All data was normalized to the mean of 16 high and 16 low control wells on each plate. A four parameter curve fit of the following formula was then applied: Y=a+(b−a)/(1+(x/c)^d) Where ‘a’ is the minimum, ‘b’ is the maximum, ‘c’ is the pIC50 and ‘d’ is the Hill slope. Protein Expression and Purification
Recombinant human bromodomains containing the N-terminal bromodomain (BRD2-BD1 (71-194), BRD3-BD1 (24-144) and BRD4-BD1 (44-164)) or dual bromodomains (BRD4-BD12 (1-477), BRD4-BD12 (1-472)) were expressed in E. coli cells (in a modified pET vector) with an N-terminal six-His tag and purified using a combination of both IMAC (Ni-affinity) and size exclusion chromatography steps.
Recombinant BRD proteins were expressed using the E. coli strain BL21-CodonPlus (DE3) (Agilent Technologies CA, USA). Cells were grown in Terrific Broth (TB) media to an OD600 of 1.2 at 37° C. at which temperature was reduced to 25° C., protein was induced with 1.0 mM ispropyl-β-D-thiogalactopyranoside (“IPTG”) for 12-18 hours and harvested by centrifugation at 8000×g for 20 minutes. Cells were re-suspended in 0.1M K2PO4 pH 8.0, 250 mM NaCl, 10% Glycerol, 0.75% NP-40, 25 mM Imidazole, 5 mM beta-mercaptoethanol (“BME”) with 0.2 mg/ml Lysosyme, 2.0 mM phenylmethanesulfonyl fluoride (“PMSF”), 25 μg/ml DNAse I, incubated on ice for 30 minutes and lyzed with a cell disruptor (MicroFluidics MA, USA). The lysate was clarified by centrifugation at 20,000×g for 2 hours. The protein was captured with Ni-NTA resin (Life Technologies, USA). Contaminating proteins were washed off with 25 mM Tris-HCl pH 8.3, 250 mM NaCl, 12% Glycerol and 50 mM Imidazole. Following 3× wash steps, protein was eluted step wise using a 50 mM HEPES pH 7.5, 500 mM NaCl and 400 mM Imidazole. The protein was further purified using Gel Filtration column 26/600 Superdex 200 (GE Biosciences NJ, USA) in 50 mM HEPES pH 7.5, 250 mM NaCl. The protein was aliquoted and flash-frozen in liquid Nitrogen.

| SMILES | IC50 [µM] |
| --- | --- |
| Cc1noc(C)c1-c1cnc2[nH]cc(CC3CCC(F)(F)CC3)c2c1 [P-0034, 4-[3-[(4,4-difluoro-cyclohexyl)methyl]-1H-pyrrolo[2,3-b]pyridin-5-yl]-3,5-dimethyl-isoxazole] | < 1 |
| Cc1noc(C)c1-c1cnc2ccn(C(CC#N)C3CCCC3)c2c1 (stereo not drawn) [P-0196, 3-cyclopentyl-3-[6-(3,5-dimethylisoxazol-4-yl)pyrrolo[3,2-b]pyridin-1-yl]propanenitrile] | < 1 |
| Cc1noc(C)c1-c1cnc2c(-c3cnn(C(F)F)c3)cn(S(=O)(=O)c3ccccc3)c2c1 [P-0131, 4-[1-(benzenesulfonyl)-3-[1-(difluoromethyl)pyrazol-4-yl]pyrrolo[3,2-b]pyridin-6-yl]-3,5-dimethyl-isoxazole] | < 1 |
| CCn1cc(-c2cn(S(=O)(=O)c3ccccc3)c3cc(-c4c(C)noc4C)cnc23)cn1 [P-0124, 4-[1-(benzenesulfonyl)-3-(1-ethylpyrazol-4-yl)pyrrolo[3,2-b]pyridin-6-yl]-3,5-dimethyl-isoxazole] | < 1 |
| CCOC(=O)C(c1ccccc1)n1cc(-c2cnn(C)c2)c2ncc(-c3c(C)noc3C)cc21 (stereo not drawn) [P-0186, ethyl 2-[6-(3,5-dimethylisoxazol-4-yl)-3-(1-methylpyrazol-4-yl)pyrrolo[3,2-b]pyridin-1-yl]-2-phenyl-acetate] | < 1 |
| Cc1noc(C)c1-c1cnc2c(c1)c(CC1CCN(C(=O)c3ccccc3)CC1)cn2C [P-0115, [4-[[5-(3,5-dimethylisoxazol-4-yl)-1-methyl-pyrrolo[2,3-b]pyridin-3-yl]methyl]-1-piperidyl]-phenyl-methanone] | < 1 |
| Cc1noc(C)c1-c1cnc2c(-c3cnn(C)c3)cn(Cc3ccccn3)c2c1 [P-0198, 3,5-dimethyl-4-[3-(1-methylpyrazol-4-yl)-1-(2-pyridylmethyl)pyrrolo[3,2-b]pyridin-6-yl]isoxazole] | < 1 |
| Cc1noc(C)c1-c1cnc2[nH]cc(C(O)c3ccccc3OC(F)F)c2c1 (stereo not drawn) [P-0040, [2-(difluoromethoxy)phenyl]-[5-(3,5-dimethylisoxazol-4-yl)-1H-pyrrolo[2,3-b]pyridin-3-yl]methanol] | < 1 |
| Cc1noc(C)c1-c1cnc2[nH]cc(P(=O)(c3ccccc3)c3ccccc3)c2c1 [P-0166, 4-(3-diphenylphosphoryl-1H-pyrrolo[2,3-b]pyridin-5-yl)-3,5-dimethyl-isoxazole] | < 1 |
| Cc1noc(C)c1-c1cnc2c(-c3cnn(C)c3)cn(C(C(=O)NC3CC3)c3ccccc3)c2c1 (stereo not drawn) [P-0207, N-cyclopropyl-2-[6-(3,5-dimethylisoxazol-4-yl)-3-(1-methylpyrazol-4-yl)pyrrolo[3,2-b]pyridin-1-yl]-2-phenyl-acetamide] | < 1 |
| Cc1nc(Cn2cc(-c3cnn(C)c3)c3ncc(-c4c(C)noc4C)cc32)cs1 [P-0170, 3,5-dimethyl-4-[3-(1-methylpyrazol-4-yl)-1-[(2-methylthiazol-4-yl)methyl]pyrrolo[3,2-b]pyridin-6-yl]isoxazole] | < 1 |
| Cc1noc(C)c1-c1cnc2c(-c3cnn(C)c3)cn(S(=O)(=O)c3ccc(F)cc3)c2c1 [P-0123, 4-[1-(4-fluorophenyl)sulfonyl-3-(1-methyl-pyrazol-4-yl)pyrrolo[3,2-b]pyridin-6-yl]-3,5-dimethyl-isoxazole] | < 1 |
| Cc1noc(C)c1-c1cnc2c(c1)c(Sc1ccccc1)cn2-c1cnn(C)c1 [P-0184, 3,5-dimethyl-4-[1-(1-methylpyrazol-4-yl)-3-phenylsulfanyl-pyrrolo[2,3-b]pyridin-5-yl]isoxazole] | < 1 |
| Cc1noc(C)c1-c1cnc2c(-c3cn[nH]c3)cn(S(=O)(=O)C3CCCC3)c2c1 [P-0167, 4-[1-cyclopentylsulfonyl-3-(1H-pyrazol-4-yl)pyrrolo[3,2-b]pyridin-6-yl]-3,5-dimethyl-isoxazole] | < 1 |
| Cc1noc(C)c1-c1cnc2[nH]cc(C(c3ccc(F)cc3)C3CC3)c2c1 (stereo not drawn) [P-0064, 4-[3-[cyclopropyl-(4-fluorophenyl)methyl]-1H-pyrrolo[2,3-b]pyridin-5-yl]-3,5-dimethyl-isoxazole] | < 1 |
| COCCn1cc(-c2cn(C(C)c3ccccc3)c3cc(-c4c(C)noc4C)cnc23)cn1 (stereo not drawn) [P-0203, 4-[3-[1-(2-methoxyethyl)pyrazol-4-yl]-1-(1-phenyl-ethyl)pyrrolo[3,2-b]pyridin-6-yl]-3,5-dimethyl-isoxazole] | < 1 |
| Cc1ccc(S(=O)(=O)n2ccc3ncc(-c4c(C)noc4C)cc32)s1 [P-0062, 3,5-dimethyl-4-[1-[(5-methyl-2-thienyl)sulfonyl]pyrrolo[3,2-b]pyridin-6-yl]isoxazole] | < 1 |
| COC(c1c[nH]c2ncc(-c3c(C)noc3C)cc12)C1CCS(=O)(=O)CC1 (stereo not drawn) [P-0089, 4-[[5-(3,5-dimethylisoxazol-4-yl)-1H-pyrrolo[2,3-b]pyridin-3-yl]-methoxy-methyl]thiane 1,1-dioxide] | < 1 |
| Cc1noc(C)c1-c1cnc2c(-c3cnn(C)c3)cn(Cc3ccccc3Cl)c2c1 [P-0193, 4-[1-[(2-chlorophenyl)methyl]-3-(1-methylpyrazol-4-yl)pyrrolo[3,2-b]pyridin-6-yl]-3,5-dimethyl-isoxazole] | < 1 |
| Cc1noc(C)c1-c1cnc2c(-c3cn[nH]c3)cn(S(=O)(=O)c3ccccc3)c2c1 [P-0163, 4-[1-(benzenesulfonyl)-3-(1H-pyrazol-4-yl)pyrrolo[3,2-b]pyridin-6-yl]-3,5-dimethyl-isoxazole] | < 1 |
| COC(c1c(F)cccc1Cl)c1c[nH]c2ncc(-c3c(C)noc3C)cc12 (stereo not drawn) [P-0014, 4-[3[(2-chloro-6-fluoro-phenyl)-methoxy-methyl]-1H-pyrrolo[2,3-b]pyridin-5-yl]-3,5-dimethyl-isoxazole] | < 1 |
| COc1ncc(-c2cn(S(=O)(=O)c3ccccc3)c3cc(-c4c(C)noc4C)cnc23)cn1 [P-0104, 4-[1-(benzenesulfonyl)-3-(2-methoxypyrimidin-5-yl)pyrrolo[3,2-b]pyridin-6-yl]-3,5-dimethyl-isoxazole] | < 1 |
| CCCS(=O)(=O)n1cc(-c2cnn(C(F)F)c2)c2ncc(-c3c(C)noc3C)cc21 [P-0135, 4-[3-[1-(difluoro-methyl)pyrazol-4-yl]-1-propylsulfonyl-pyrrolo[3,2-b]pyridin-6-yl]-3,5-dimethyl-isoxazole] | < 1 |
| CCc1[nH]c2ncc(-c3c(C)noc3C)cc2c1C(O)C1CCC(F)(F)CC1 (stereo not drawn) [P-0044, (4,4-difluorocyclohexyl)-[5-(3,5-dimethylisoxazol-4-yl)-2-ethyl-1H-pyrrolo[2,3-b]pyridin-3-yl]methanol] | < 1 |
| Cc1noc(C)c1-c1cnc2c(-c3cnc(C4CC4)nc3)cn(S(=O)(=O)C3CCCC3)c2c1 [P-0103, 4-[1-cyclopentyl-sulfonyl-3-(2-cyclopropylpyrimidin-5-yl)pyrrolo[3,2-b]pyridin-6-yl]-3,5-dimethyl-isoxazole] | < 1 |
| C=CCn1cc(-c2cn(S(=O)(=O)c3ccccc3)c3cc(-c4c(C)noc4C)cnc23)cn1 [P-0126, 4-[3-(1-allylpyrazol-4-yl)-1-(benzenesulfonyl)pyrrolo[3,2-b]pyridin-6-yl]-3,5-dimethyl-isoxazole] | < 1 |
| C=CCn1cc(-c2cn(S(=O)(=O)c3ccccc3F)c3cc(-c4c(C)noc4C)cnc23)cn1 [P-0127, 4-[3-(1-allylpyrazol-4-yl)-1-(2-fluorophenyl)sulfonyl-pyrrolo[3,2-b]pyridin-6-yl]-3,5-dimethyl-isoxazole] | < 1 |
